Legend:
[1] = test system: vector- and LPA2-transduced MEF cells; assay: Adriamycin-induced apoptosis, DNA fragmentation ELISA; format: cell-based, mouse; settings: GRI977143 10 μM
Experimental: Experiments were performed on vector- and LPA2-transduced MEF cells. To measure caspase 3, 7, 8, or 9 activity and DNA fragmentation, cells were plated in 48-well plates (2×10^4 cells/well). To detect PARP-1 cleavage and Bax translocation, 1.5×10^6 cells were plated in 10-cm dishes and cultured overnight in full growth medium. The next morning, the growth medium was replaced by serum-starvation medium and cells were pretreated for 1 h with LPA (1-10 μM), OTP (1-10 μM), GRI977143 (1-10 μM), or vehicle. Caspase activity, DNA fragmentation, PARP-1 cleavage, and Bax translocation were measured 5 h after incubation with 1.7 μM Adriamycin or 24 h after serum withdrawal.
Apoptotically-challenged cells were washed twice with PBS, and a quantitative DNA fragmentation assay was carried out using a Cell Death Detection ELISA PLUS kit (Roche Diagnostics, Penzberg, Germany) and normalized to protein concentration using the BCA Protein Assay Kit (Thermo Fisher Scientific, Inc.; Rockford, Ill.) as described previously (Valentine et al., 2010). Aliquots of nuclei-free cell lysate were placed in streptavidin-coated wells and incubated with anti-histone-biotin antibody and anti-DNA peroxidase-conjugated antibody for 2 h at room temperature. After the incubation, the sample was removed, and the wells were washed and incubated with 100 μl 2,2′-azino-di[3-ethylbenzthiazolin-sulfonate substrate at room temperature before the absorbance was read at 405 nm. Results were expressed as absorbance at 405 nm/min/mg protein as detailed in our previous report (Ray et al., Mdm2 inhibition induces apoptosis in p53 deficient human colon cancer cells by activating p73- and E2F1-mediated expression of PUMA and Siva-1. Apoptosis (2011) 16(1): 35-44).

LPA1 = biological target: T1, LPA1 (Homo sapiens, UniProt Q92633); assay: LPA receptor-mediated Ca2+ mobilization assay, LPA1; format: cell-based; settings: for EC50: agonist, Ca2+ mobilization; for inhibition of LPA1 Ca2+ response: 10 μM, ~EC75 LPA 18:1; for LPA1 Imax (%): inhibition by 10 μM compound of ~EC75 LPA 18:1 Ca2+ response
T1 construct: expressed in transfected cells
Experimental: Similarity searches were performed separately using each fingerprint to quantitate similarity. Hits meeting the 80% similarity threshold from each search were ranked based on the Tanimoto coefficient measure of similarity to a target molecule NSC12404, and the top 75 unique hits from each fingerprint search were selected for further analysis. The 225 compounds selected for further analysis were clustered based on Tanimoto coefficients calculated using Molecular ACCess System-key fingerprints (MACCS keys) and evaluated using the diversity subset function implemented in MOE. This selected a diverse subset of 27 compounds for biological evaluation by choosing the middle compounds in each cluster. These 27 compounds were tested in Ca^2+ mobilization assays at a concentration of 10 μM using stable cell lines individually expressing LPA2 and also in vector-transfected control cells. Hits activating LPA2 were further tested using cells expressing the other established and putative LPA GPCRs. Experimental testing of the selected compounds identified the three new selective LPA2 agonists: GRI977143, H2L5547924, and H2L5828102. […] They arbitrarily selected GRI977143 for further characterization in cell-based assays.
J Biol Chem (2009) 284(25): 17304-17319). […] The cells were loaded with Fura-2-acetoxymethyl esther (Fura-2/AM) in Krebs buffer containing 0.01% pluronic acid for 30 min and rinsed with Krebs buffer before measuring Ca^2+ mobilization. The ratio of peak emissions at 510 nm after 2 min of ligand addition was determined for excitation wavelengths of 340 nm/380 nm. All samples were run in quadruplicate. […] The half maximally effective concentration (EC50), and inhibitory constant (Ki) values were calculated by fitting a sigmoid function to dose-response data points using KaleidaGraph software (version 4.1, Synergy Software; […]).
Mouse embryonic fibroblast (MEF) cells were isolated from E13.5 LPA1&2 double knockout (DKO) embryos. MEFs were transduced with empty vector or LPA2-containing lentiviruses and selected with 1.5 μg/ml puromycin. Cells were maintained in Dulbecco's modified Eagle medium (DMEM) supplemented with 10% (V/V) fetal bovine serum (FBS), 2 mM L-glutamine, 100 U/mL penicillin, and 100 μg/mL streptomycin. Serum-free medium contained 0.1% (W/V) BSA in DMEM. The rat intestinal epithelial cell line 6 (IEC-6) was obtained from the American Type Culture Collection (Rockville, Md.) at passage 13; passages 16-21 were used in all experiments. IEC-6 cells were maintained in a humidified 37° C. incubator in an atmosphere of 90% air and 10% CO2. Growth medium consisted of DMEM supplemented with 5% heat inactivated FBS, 10 μg/mL insulin, and 50 μg/mL gentamycin. The composition of the serum-starvation medium was the same as that of the full growth medium except that it contained no FBS. The McArdle rat hepatoma cell line (RH7777) stably expressing LPA2 receptors was a gift from Dr. Fumikazu Okajima (Gunma University, Maebashi, Japan). RH7777 cells stably expressing LPA1 or LPA3 receptors were generated in-house and had been characterized earlier. Wild type and LPA receptor (LPAR) stably transfected RH7777 cells were grown in DMEM supplemented with 10% FBS and 2 mM L-glutamine in the presence of 250 μg/ml G418. Chinese hamster ovary (CHO) cells stably expressing either vector or LPA4 receptor were a kind gift from Dr. Takao Shimizu (Tokyo University; Tokyo, Japan). Cells were cultured in Ham's F12 medium containing 10% FBS, 2 mM L-glutamine, and 350 μg/ml G418. Rat neuroblastoma cells (B103) were transduced with the lentivirus harboring wild type of FLAG-LPA5 and selected with puromycin to establish the stable cell lines. The stable cells were maintained in DMEM supplemented with 10% FBS and 0.4 μg/ml puromycin. GPR87- and P2Y10-expressing CHO cells and vector-transfected control cells were a gift from Dr. Norihisha Fujita (Ritsumeikan University; Shiga, Japan). […]

[2] = LPA2-transduced MEF, LPA and OTP 3 μM

T1 sequence (Q92633 whole entry, species assumed): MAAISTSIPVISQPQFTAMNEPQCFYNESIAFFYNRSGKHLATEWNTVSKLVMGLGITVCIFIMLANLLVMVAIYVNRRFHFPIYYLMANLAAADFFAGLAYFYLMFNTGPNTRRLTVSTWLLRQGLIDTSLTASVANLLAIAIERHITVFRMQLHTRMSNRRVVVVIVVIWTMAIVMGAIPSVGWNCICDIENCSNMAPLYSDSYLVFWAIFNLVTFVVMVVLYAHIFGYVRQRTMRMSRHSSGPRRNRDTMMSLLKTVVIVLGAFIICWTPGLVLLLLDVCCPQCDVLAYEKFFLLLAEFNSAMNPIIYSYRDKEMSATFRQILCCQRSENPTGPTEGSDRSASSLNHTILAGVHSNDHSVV

## O=C(O)c1ccccc1SCCCN1C(=O)c2cccc3cccc(c23)C1=O [GRI977143]
[1]; [2]
  reduction of DNA fragmentation: 41±2%
[1]; vector-transduced MEF
  reduction of DNA fragmentation: 7±1%

## octadecenyl thiophosphate [OTP]
LPA1
  EC50: 651 nM
[1]; [2]
  reduction of DNA fragmentation: 32±1%

## O=C(O)c1cc(Cl)c(Cl)cc1C(=O)Nc1ccc2c(c1)C(=O)c1ccccc1-2 [Compound H2L5547924]
LPA1
  inhibition of LPA1 Ca2+ response: partially inhibited
  LPA1 Imax (%): 21%

## CCCCCCCC/C=C\CCCCCCCC(=O)OC[C@@H](O)COP(=O)(O)O [LPA 18:1, Lysophosphatidic acid (18:1)]
LPA1
  EC50: 130 nM
[1]; [2]
  reduction of DNA fragmentation: 35±4%

## O=C(O)c1ccccc1C(=O)Nc1ccc2c(c1)C(=O)c1ccccc1-2 [NSC12404]
LPA1
  EC50: > 10000 nM

## O=C(O)c1ccccc1C(=O)Nc1ccc2c(c1)C(=O)c1ccccc1C2=O [Compound H2L5828102]
LPA1
  inhibition of LPA1 Ca2+ response: partially inhibited
  LPA1 Imax (%): 29%

Source: patent publication US9056835B2, “LPA2 receptor-specific benzoic acid derivatives” (University of Tennessee Research Foundation, priority 2012, dated 2015)
